Reference: US20230265151A1, “GIP/GLP1 CO-AGONIST COMPOUNDS” (priority 2020, published 2023)
Like-named read-outs stand apart in the source and are kept apart here. *1 amine or outer side, *2 acyl side, *3 side chain or, on linkers, in order; H or OH if unused. Where a SMILES comes first, the peptide text is derived from it. Side-chain parts run from the residue outwards. [ ]: non-standard residue; d: D form. The star is where a group is joined. αMePhe(2-F) = C[C@](N)(Cc1ccccc1F)C(=O)O; γGlu = O=C(O)[C@H](CCC(=O)[*:2])N[*:1]; αMeY = C[C@](N)(Cc1ccc(O)cc1)C(=O)O; αMeF = C[C@](N)(Cc1ccccc1)C(=O)O; 4Pal = N[C@@H](Cc1ccncc1)C(=O)O; αMeL = CC(C)C[C@](C)(N)C(=O)O; Lauroyl = CCCCCCCCCCCC(=O)*; Orn = NCCC[C@H](N)C(=O)O; AEEA = NCCOCCOCC(=O)O; Aib = CC(C)(N)C(=O)O

Tests used:
Type in all cases: cell-based
hGCGR = target: T1, hGCGR (Homo sapiens, UniProt P47871); test: Functional cAMP formation (HTRF) in HEK-293 clonal cells expressing hGCGR, 0.1% bovine casein, without or with 1.0% human serum albumin; conditions: 37° C., geometric mean, read-out: hGCGR EC50, nM (SEM, n)
T1 construct: expressed in transfected cells
T1 sequence (P47871 26-477): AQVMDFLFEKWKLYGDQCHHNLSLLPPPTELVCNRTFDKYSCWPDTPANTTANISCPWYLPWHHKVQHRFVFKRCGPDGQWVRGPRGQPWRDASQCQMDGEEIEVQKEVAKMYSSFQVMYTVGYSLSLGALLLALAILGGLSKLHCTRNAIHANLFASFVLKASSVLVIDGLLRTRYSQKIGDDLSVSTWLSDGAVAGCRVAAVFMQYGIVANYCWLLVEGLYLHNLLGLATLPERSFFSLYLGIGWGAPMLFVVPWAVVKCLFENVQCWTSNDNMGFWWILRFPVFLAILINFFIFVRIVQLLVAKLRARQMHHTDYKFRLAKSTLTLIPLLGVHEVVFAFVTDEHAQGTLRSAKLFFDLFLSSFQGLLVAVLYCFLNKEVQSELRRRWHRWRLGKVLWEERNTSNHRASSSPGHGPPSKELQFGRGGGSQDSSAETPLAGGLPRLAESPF
Outline: (§1)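 Readings of the HTRF 665/620 nm ratio, which falls as cAMP rises, were converted to nM cAMP using a standard curve after 30 min peptide exposure at 37° C.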

hGLP-1R = hGLP-1R (Homo sapiens, UniProt P43220); test: Functional cAMP formation (HTRF) in HEK-293 clonal cells expressing hGLP-1R, 0.1% bovine casein, without or with 1.0% human serum albumin; design: expressed in transfected cells; conditions: 37° C.; for EC50: geometric mean, read-out: hGLP-1R EC50, nM (SEM, n); for Emax: percent of maximal response to GLP-1(7-36)NH2, read-out: hGLP-1R Emax, % ± SEM
Sequence of hGLP-1R (P43220 24-463): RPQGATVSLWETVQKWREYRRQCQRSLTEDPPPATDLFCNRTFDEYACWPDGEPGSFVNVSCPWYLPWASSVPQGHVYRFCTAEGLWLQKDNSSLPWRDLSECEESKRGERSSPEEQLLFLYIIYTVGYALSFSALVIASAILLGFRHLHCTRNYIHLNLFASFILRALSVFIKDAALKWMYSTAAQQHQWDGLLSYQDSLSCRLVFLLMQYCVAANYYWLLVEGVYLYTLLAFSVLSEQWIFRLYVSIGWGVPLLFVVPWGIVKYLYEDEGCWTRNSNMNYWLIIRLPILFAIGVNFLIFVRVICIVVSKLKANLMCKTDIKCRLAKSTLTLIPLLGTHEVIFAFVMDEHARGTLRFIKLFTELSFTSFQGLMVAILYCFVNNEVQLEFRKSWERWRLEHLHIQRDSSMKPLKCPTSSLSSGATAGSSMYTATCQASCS
Outline: as §1

hGIPR = target: T2, hGIPR (Homo sapiens, UniProt P48546); test: Functional cAMP formation (HTRF) in HEK-293 clonal cells expressing hGIPR, 0.1% bovine casein, without or with 1.0% human serum albumin; conditions: 37° C.; for EC50: geometric mean, read-out: hGIPR EC50, nM (SEM, n); for Emax: percent of maximal response to GIP(1-42)NH2, read-out: hGIPR Emax, % ± SEM
T2 construct: expressed in transfected cells
T2 sequence (P48546 22-466): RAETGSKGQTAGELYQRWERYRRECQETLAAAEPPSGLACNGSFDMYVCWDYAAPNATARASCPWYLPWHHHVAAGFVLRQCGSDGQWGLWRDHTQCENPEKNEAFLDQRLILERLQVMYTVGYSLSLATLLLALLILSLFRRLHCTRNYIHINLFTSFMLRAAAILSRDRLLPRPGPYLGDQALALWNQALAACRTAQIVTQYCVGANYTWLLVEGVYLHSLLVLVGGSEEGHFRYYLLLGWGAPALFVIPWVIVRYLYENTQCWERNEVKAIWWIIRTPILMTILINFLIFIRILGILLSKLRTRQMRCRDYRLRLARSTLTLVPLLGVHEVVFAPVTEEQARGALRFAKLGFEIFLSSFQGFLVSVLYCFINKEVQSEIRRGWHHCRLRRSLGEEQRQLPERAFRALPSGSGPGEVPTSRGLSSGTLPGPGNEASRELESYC
Outline: as §1

[1] = 0.1% bovine casein and 1.0% human serum albumin
[2] = cAMP, 0.1% bovine casein (no human serum albumin)
[3] = HEK293, 0.1% bovine casein and 1.0% human serum albumin
[4] = HEK293, cAMP, 0.1% bovine casein, arithmetic mean

SMILES	EC50 (hGCGR; [1]) [nM]	EC50 (hGCGR; [2]) [nM]	EC50 (hGLP-1R; [1]) [nM]	Emax (hGLP-1R; [3]) [%]	Emax (hGLP-1R; [4]) [%]	EC50 (hGLP-1R; [2]) [nM]	EC50 (hGIPR; [1]) [nM]	Emax (hGIPR; [3]) [%]	Emax (hGIPR; [4]) [%]	EC50 (hGIPR; [2]) [nM]
CCCCCCCCCCCC(=O)N[C@@H](CCC(=O)NCCOCCOCC(=O)NCCOCCOCC(=O)NCCCC[C@H](NC(=O)[C@H](CCCN)NC(=O)[C@H](CC(=O)O)NC(=O)[C@H](CC(C)C)NC(=O)[C@](C)(CC(C)C)NC(=O)[C@@H](NC(=O)[C@H](CO)NC(=O)[C@H](Cc1ccncc1)NC(=O)[C@H](CC(=O)O)NC(=O)[C@H](CO)NC(=O)[C@@H](NC(=O)[C@](C)(Cc1ccccc1F)NC(=O)[C@@H](NC(=O)CNC(=O)[C@H](CCC(=O)O)NC(=O)C(C)(C)NC(=O)[C@@H](N)Cc1ccc(O)cc1)[C@@H](C)O)[C@@H](C)O)[C@@H](C)CC)C(=O)N[C@@H](C)C(=O)N[C@@H](CCC(N)=O)C(=O)NC(C)(C)C(=O)N[C@@H](CCC(=O)O)C(=O)N[C@@H](Cc1ccccc1)C(=O)N[C@H](C(=O)N[C@H](CCC(=O)O)C(=O)N[C@@](C)(Cc1ccc(O)cc1)C(=O)N[C@@H](CC(C)C)C(=O)N[C@H](C(=O)N[C@@H](CCCCNC(=O)COCCOCCNC(=O)COCCOCCNC(=O)CC[C@H](NC(=O)CCCCCCCCCCC)C(=O)O)C(=O)NCC(=O)NCC(N)=O)[C@@H](C)CC)[C@@H](C)CC)C(=O)O [Example 296] (H-Y[Aib]EGT[αMePhe(2-F)]TSD[4Pal]SI[αMeL]LD[Orn]K([AEEA-AEEA-γGlu-Lauroyl])AQ[Aib]EFI[dE][αMeY]LIK([AEEA-AEEA-γGlu-Lauroyl])GG-NH2; N-terminus assumed)	> 9950	> 9950	13	109	109	0.108	0.823	91.9	100	0.0121
CCCCCCCCCCCC(=O)N[C@@H](CCC(=O)NCCOCCOCC(=O)NCCOCCOCC(=O)NCCCC[C@H](NC(=O)[C@H](CCCN)NC(=O)[C@H](CC(=O)O)NC(=O)[C@H](CC(C)C)NC(=O)[C@](C)(CC(C)C)NC(=O)[C@@H](NC(=O)[C@H](CO)NC(=O)[C@H](CCCCNC(=O)COCCOCCNC(=O)COCCOCCNC(=O)CC[C@H](NC(=O)CCCCCCCCCCC)C(=O)O)NC(=O)[C@H](CC(=O)O)NC(=O)[C@H](CO)NC(=O)[C@@H](NC(=O)[C@](C)(Cc1ccccc1F)NC(=O)[C@@H](NC(=O)CNC(=O)[C@H](CCC(=O)O)NC(=O)C(C)(C)NC(=O)[C@@H](N)Cc1ccc(O)cc1)[C@@H](C)O)[C@@H](C)O)[C@@H](C)CC)C(=O)N[C@@H](C)C(=O)N[C@@H](CCC(N)=O)C(=O)NC(C)(C)C(=O)N[C@@H](CCC(=O)O)C(=O)N[C@@](C)(Cc1ccccc1)C(=O)N[C@H](C(=O)N[C@H](CCC(=O)O)C(=O)N[C@@](C)(Cc1ccc(O)cc1)C(=O)N[C@@H](CC(C)C)C(=O)N[C@H](C(=O)N[C@@H](CCC(=O)O)C(=O)NCC(=O)NCC(N)=O)[C@@H](C)CC)[C@@H](C)CC)C(=O)O [Example 297] (H-Y[Aib]EGT[αMePhe(2-F)]TSDK([AEEA-AEEA-γGlu-Lauroyl])SI[αMeL]LD[Orn]K([AEEA-AEEA-γGlu-Lauroyl])AQ[Aib]E[αMeF]I[dE][αMeY]LIEGG-NH2)	> 9950	> 9950	19.1			0.125	1.54			0.0112
